Assay results reported in article PMC10767055, “Different binding modalities of quercetin to inositol-requiring enzyme 1 of S. cerevisiae and human lead to opposite regulation” (Communications Chemistry, 2024).

Tests used:
[1] = target: T1, human IRE1 (hIRE1, IRE1α) (Homo sapiens, UniProt O75460); experiment: in vitro RNase cleavage assay, recombinant IRE1, fluorescence-quenched mini XBP1 RNA probe; assay type: biochemical
T1 construct: gene ERN1; aa 465-977, His & GST Tag

[2] = target: T1, human IRE1 (hIRE1, IRE1α); experiment: MST displacement of fluorescent Kinase Tracer […] (positive control); assay type: binding

T1 sequence (O75460 465-977): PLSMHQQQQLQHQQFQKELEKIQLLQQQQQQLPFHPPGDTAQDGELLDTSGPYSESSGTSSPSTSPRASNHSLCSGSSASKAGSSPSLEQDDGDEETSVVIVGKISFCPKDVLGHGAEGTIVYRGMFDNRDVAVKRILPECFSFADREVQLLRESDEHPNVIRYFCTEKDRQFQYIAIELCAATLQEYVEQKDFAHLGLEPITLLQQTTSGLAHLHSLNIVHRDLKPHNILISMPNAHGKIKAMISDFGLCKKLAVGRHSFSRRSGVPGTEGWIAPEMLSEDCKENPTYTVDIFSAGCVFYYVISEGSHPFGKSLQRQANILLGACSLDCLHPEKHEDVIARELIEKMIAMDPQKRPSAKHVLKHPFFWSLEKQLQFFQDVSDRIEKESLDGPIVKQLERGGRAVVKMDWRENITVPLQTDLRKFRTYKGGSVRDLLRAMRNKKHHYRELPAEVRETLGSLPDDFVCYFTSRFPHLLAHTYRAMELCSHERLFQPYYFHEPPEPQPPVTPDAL

Row | Compound | IC50 [1] | IC50 [2]
1 | C[C@@H]1O[C@@H](Oc2c(-c3ccc(O)c(O)c3)oc3cc(O)cc(O)c3c2=O)[C@H](O)[C@H](O)[C@H]1O [Qi, Quercitrin] | 226 ± 70 nM | –
2 | Cc1ccc2c(NS(=O)(=O)c3ccccc3Cl)cccc2c1Oc1ncccc1-c1ccnc(N[C@H]2CCCNC2)n1 [KIRA8] | – | 73 ± 5 nM
3 | O=c1c(O)c(-c2ccc(O)c(O)c2)oc2cc(O)cc(O)c12 [Qe, Quercetin] | 272 ± 150 nM | –
